Source: US20230278987A1, “Antimicrobial Compounds and Methods” (Curza Global, LLC, priority 2019, published 2023)
Converted amounts (≈) assume the structure as drawn. Counter-ions that a name gives are not always drawn. Like-named read-outs stand apart in the source and are kept apart here.

Legend:
P.aeruginosa (Pa) = assay: Broth microdilution MIC against P.aeruginosa (Pa); type: cell-based; conditions: Pseudomonas aeruginosa
Method: (§1) A certified BSL-2 laboratory was used for testing. Compounds were evaluated using the broth microdilution minimum inhibitory concentration (MIC) and minimum bactericidal concentration (MBC) assays defined by Clinical and Laboratory Standards Institute (CLSI) in the M26-A guideline against S.aureus (Sa), E.coli (Ec), K.pneumoniae (Kp), A.baumannii (Ab), E.faecalis (Ef) and P.aeruginosa (Pa).
(§2) MICs were determined using the Clinical Laboratory and Standards Institute (CLSI) Broth Microdilution Method with slight modification. Clinical and Laboratory Standards Institute (2012). “Methods for dilution antimicrobial susceptibility tests for bacteria that grow aerobically; approved standard, 9th ed. M07-A9. Clinical and Laboratory Standards Institute, Wayne, PA.” Serial two-fold dilutions of compounds are prepared in sterile clear roundbottom 96-well plates.
(§3) To prepare microdilution trays, two-fold dilutions of antimicrobial agent are prepared in growth medium: Cation-Adjusted Mueller-Hinton Broth (CAMHB), or CAMHB supplemented with sodium bicarbonate (6.25 or 25 mM final concentration prepared from a 1.0 M stock solution) or CAMHB supplemented with heat inactivated human serum (Fisher Cat. # BP2657100) 0-50% by adding 200 µL of the highest concentration to be tested (64 µg/mL, for example) in row A, mixing and transferring 100 µL from row A to 100 µL growth medium in row B, then repeating the mixing and transferring through row H of the 96-well plate, discarding the excess 100 µL remaining. This slight modification to the CLSI protocol enables evaluation of MICs for 3 compounds per plate in triplicate, albeit with only 8 compound dilutions (CLSI protocol enables 2 compounds in triplicate with 10 dilutions). Bacterial suspensions are added to a final concentration of 5 × 10^4 CFU/well by adding 5 µL of a 1:10 dilution of a 0.5 McFarland suspension (1 × 10^8 CFU/mL) for each bacterium evaluated. Bacterial suspensions were prepared using the growth method described by CLSI. Well-isolated colonies (3-5 from an agar plate) were selected using a sterile loop and used to inoculate a tube containing 4 mL of CAMHB. The cultures are incubated at 35 ± 2° C. until it achieves or exceeds the turbidity of the 0.5 McFarland standard, determined by measuring A600nm (usually two to six hours). When growth exceeds a 0.5 McFarland standard, the turbidity is adjusted with broth to be equivalent to a 0.5 McFarland standard.

S.aureus (Sa) = assay: Broth microdilution MIC against S.aureus (Sa); type: cell-based; conditions: Staphylococcus aureus
Method: as §1, §2, §3

A.baumannii (Ab) = assay: Broth microdilution MIC against A.baumannii (Ab); type: cell-based; conditions: Acinetobacter baumannii
Method: as §1, §2, §3

[1] = molecular target: Rabbit Reticulocyte Lysate (eukaryotic protein synthesis); assay: Rabbit Reticulocyte Lysate: inhibition of eukaryotic protein synthesis (luciferase); type: biochemical; conditions: 30° C. for 90 minutes, read-out: retic. IC50
Method: Inhibition of eukaryotic protein synthesis was determined using the Rabbit Reticulocyte Lysate System, Nuclease-Treated from Promega (catalog #L-4960) with slight modifications to the manufacturer’s protocol. Compounds were serial diluted in 0.5 mL microcentrifuge tubes by mixing and transferring 50 µL from the highest concentration to 50 µL of water, mixing and transferring 50 µL of this 2-fold dilution to 50 µL of water. This mixing and transferring was repeated so that there are a total of 8 tubes with serial dilutions of compound at 10× the desired screening concentration that are ultimately diluted to 1× by the addition of rabbit reticulocyte luciferase synthesis mixture. Serial dilutions of compounds were added (2.5 µL) to wells in a black round bottom 96-well plate. Water (2.5 µL) was used as a “no inhibitor” control in 4 wells/plate. No RNA control reaction mixture (2 µL; see below) was used as a control in 4 wells/plate for background luminescence. Rabbit reticulocyte luciferase synthesis mixture (22.5 µL; see below) was added to wells with compounds or water mixture and incubated at 30° C. for 90 minutes. Luciferase assay reagent (25 µL) was added with luminescence measured using a BioTek Synergy HTX plate reader. % Inhibition was determined relative to no inhibitor controls.
Rabbit reticulocyte luciferase synthesis mixture: • 1,000 µL rabbit reticulocyte lysate • 5.7 µL Luciferase Control RNA (1 µg/ µL) • 26 µL complete amino acid mixture • 395 µL water
No RNA Control • 70 µL rabbit reticulocyte lysate • 2 µL complete amino acid mixture • 28 µL water

E.coli (Ec) = assay: Broth microdilution MIC against E.coli (Ec); type: cell-based; conditions: Escherichia coli
Method: as §1, §2, §3

E.faecalis (Ef) = assay: Broth microdilution MIC against E.faecalis (Ef); type: cell-based; conditions: Enterococcus faecalis
Method: as §1, §2, §3

[2] = test system: E.coli S30 extract (bacterial protein synthesis); assay: E.coli S30 extract: inhibition of bacterial protein synthesis (luciferase); type: biochemical; conditions: 37° C. for 1 hour
Method: E.coli S30 extract: Inhibition of bacterial protein synthesis was determined using the E.coli S30 Extract System for Circular DNA (Promega catalog #L-2010) and Luciferase Assay Reagent (Promega catalog #E1500) with slight modifications to a published protocol. Fyfe, C., Sutcliffe, J.A. and Grossman, T.H. (2012) “Development and characterization of a Pseudomonas aeruginosa in vitro coupled transcription-translation assay system for evaluation of translation inhibitors” J. Microbiol. Methods 90(3), 256-261.
Compounds were serial diluted in 0.5 mL microcentrifuge tubes by mixing and transferring 50 µL from the highest concentration to 50 µL of water, mixing and transferring 50 µL of this 2-fold dilution to 50 µL of water. This mixing and transferring was repeated so that there are a total of 8 tubes with serial dilutions of compound at 10× the desired screening concentration that are ultimately diluted to 1× by the addition of S30 luciferase synthesis mixture. Serial dilutions of compounds were added (2 µL) to wells in a black round bottom 96-well plate. Water (2 µL) was used as a “no inhibitor” control in 4 wells/plate. No DNA control reaction mixture (20 µL; see below) was used as a control in 4 wells/plate for background luminescence. S30 luciferase synthesis mixture (18 µL; see below) was added to wells with compounds or water mixture and incubated at 37° C. for 1 hour. Reactions were stopped by transferring to 4° C. refrigerator for 5 minutes then 25 µL of luciferase activity mix was added. Luminescence was measured using a BioTek Synergy HTX plate reader. % Inhibition was determined relative to no inhibitor controls.
S30 luciferase synthesis mixture: • 445 µL S30 extract, circular • 712 µL S30 Premix without amino acids • 4.45 µL pBESTluc™ DNA (1 µg/ µL) • 78 µL complete amino acid mixture • 267 µL water
No DNA control: • 20 µL S30 extract, circular • 32 µL S30 Premix without amino acids • 7 µL complete amino acid mixture • 21 µL water

[3] = CAMHB supplemented with sodium bicarbonate 25 mM, read-out: Pa +bicarb 25 (MIC)
[4] = CAMHB supplemented with sodium bicarbonate 25 mM, read-out: Sa + bicarb 25 (MIC)
[5] = CAMHB supplemented with sodium bicarbonate 25 mM, read-out: Ab +bicarb 25 (MIC)
[6] = CAMHB supplemented with sodium bicarbonate 25 mM, read-out: E.coli + bicarb 25 (MIC)
[7] = CAMHB supplemented with sodium bicarbonate 25 mM, read-out: Ef +bicarb 25 (MIC)
[8] = CAMHB supplemented with sodium bicarbonate 6.25 mM, read-out: Pa +bicarb 6.25 (MIC)
[9] = CAMHB supplemented with sodium bicarbonate 6.25 mM, read-out: Sa + bicarb 6.25 (MIC)
[10] = CAMHB supplemented with sodium bicarbonate 6.25 mM, read-out: Ab +bicarb 6.25 (MIC)
[11] = CAMHB supplemented with sodium bicarbonate 6.25 mM, read-out: E. coli + bicarb 6.25 (MIC)
[12] = CAMHB supplemented with sodium bicarbonate 6.25 mM, read-out: Ef +bicarb 6.25 (MIC)

| SMILES | MIC (P.aeruginosa (Pa); [3]) | MIC (S.aureus (Sa); [4]) | MIC (A.baumannii (Ab); [5]) | IC50 [1] | MIC (E.coli (Ec); [6]) | MIC (E.faecalis (Ef); [7]) | IC50 [2] | MIC (P.aeruginosa (Pa); [8]) | MIC (S.aureus (Sa); [9]) | MIC (A.baumannii (Ab); [10]) | MIC (E.coli (Ec); [11]) | MIC (E.faecalis (Ef); [12]) | MIC (P.aeruginosa (Pa); read-out: Pa +bicarb 6.25 (MIC)) | MIC (S.aureus (Sa); read-out: Sa + bicarb 6.25 (MIC)) | MIC (A.baumannii (Ab); read-out: Ab +bicarb 6.25 (MIC)) | MIC (E.coli (Ec); read-out: E. coli + bicarb 6.25 (MIC)) | MIC (E.faecalis (Ef); read-out: Ef +bicarb 6.25 (MIC)) |
| --- | --- | --- | --- | --- | --- | --- | --- | --- | --- | --- | --- | --- | --- | --- | --- | --- | --- |
| CN(C1CCc2cc(-n3ccc(NC(=O)N4CCN(C(=O)C(C)(C)N)CC4)nc3=O)ccc2C1)[C@H]1CC[C@H](N)C1 (stereo partly shown) [Compound 19, Hydrochloride Salt] | 8 to 32 µg/mL | < 8 µg/mL | 8 to 32 µg/mL | ≥ 1000 nM | < 8 µg/mL | < 8 µg/mL | < 500 nM | – | – | – | – | – | – | – | – | – | – |
| CCN(C1CCc2cc(-n3ccc(NC(=O)N4CCN(C(=O)C(C)(C)N)CC4)nc3=O)ccc2C1)[C@H]1CC[C@H](N)C1 (stereo partly shown) [Compound 20] | 8 to 32 µg/mL (≈ 14.2 to 56.7 µM) | < 8 µg/mL | 8 to 32 µg/mL (≈ 14.2 to 56.7 µM) | ≥ 1000 nM | < 8 µg/mL | < 8 µg/mL | < 500 nM | – | – | – | – | – | – | – | – | – | – |
| CC(C)(N)C(=O)N1CCN(C(=O)Nc2ccn(-c3ccc4c(c3)CCC(N(CC3CC3)[C@H]3CC[C@H](N)C3)C4)c(=O)n2)CC1 (stereo partly shown) [Compound 21] | 8 to 32 µg/mL (≈ 13.5 to 54.2 µM) | < 8 µg/mL | 8 to 32 µg/mL (≈ 13.5 to 54.2 µM) | ≥ 1000 nM | < 8 µg/mL | < 8 µg/mL | < 500 nM | – | – | – | – | – | – | – | – | – | – |
| CC(C)(N)C(=O)N1CCN(C(=O)Nc2ccn(-c3ccc4c(c3)OCC(N3CCCC(N)CC3)C4)c(=O)n2)CC1 (stereo not shown) [Compound 22] | – | – | – | ≥ 1000 nM | – | – | 500 to 1000 nM | > 32 µg/mL | 8 to 32 µg/mL | > 32 µg/mL | < 8 µg/mL | > 32 µg/mL | – | – | – | – | – |
| CC(C)(N)C(=O)N1CCN(C(=O)Nc2ccn(-c3ccc4c(c3)OCC(N3CC5CC5(CN)C3)C4)c(=O)n2)CC1 (stereo not shown) [Compound 23] | – | – | – | ≥ 1000 nM | – | – | ≥ 1000 nM | > 32 µg/mL | > 32 µg/mL | > 32 µg/mL | 8 to 32 µg/mL | > 32 µg/mL | – | – | – | – | – |
| CC(C)(N)C(=O)N1CCN(C(=O)Nc2ccn(-c3ccc4c(c3)CCC(N[C@@H]3CC[C@@H](N)C3)C4)c(=O)n2)CC1 (stereo partly shown) [Compound 25] | – | – | – | ≥ 1000 nM | – | – | < 500 nM | – | – | – | – | – | > 32 µg/mL | < 8 µg/mL | > 32 µg/mL | < 8 µg/mL | > 32 µg/mL |
| CC(C)(N)C(=O)N1CCN(C(=O)Nc2ccn(-c3ccc4c(c3)CCC(N[C@H]3CC[C@@H](N)C3)C4)c(=O)n2)CC1 (stereo partly shown) [Compound 26] | – | – | – | ≥ 1000 nM | – | – | < 500 nM | > 32 µg/mL | < 8 µg/mL | > 32 µg/mL | < 8 µg/mL | > 32 µg/mL | – | – | – | – | – |
